“And” between values parts separate entries of the source, which are not always exact repeats. Equal entries are not always repeated. ± gives the expanded uncertainty stated by the source.
Assay: xn = mol fraction of the nth substance listed
Conditions: 100 kPa; for electrical conductivity: Alternating current cell with electrodes; for viscosity: Concentric cylinders viscometry; for mass density: Vibrating tube method

For `CCCCCCCCOS(=O)(=O)[O-].CCn1cc[n+](C)c1` [1-ethyl-3-methylimidazolium octyl sulfate] + O, the electrical conductivity (278.1 K, Glass, x1 = 0.3555) was 0.188 ± 0.004 S/m, the viscosity (278.1 K, Glass, x1 = 0.1197) was 591.8 ± 63 mPa·s and the viscosity (278.1 K, Glass, x1 = 0.3555) was 2561 ± 480 mPa·s and 2061 ± 350 mPa·s. The electrical conductivity (278.1 K, Liquid, x1 = 0.0401) was 1.32 S/m and 1.31 S/m, the electrical conductivity (278.1 K, Liquid, x1 = 0.0586) was 1.24 S/m and the electrical conductivity (278.1 K, Liquid, x1 = 0.4108) was 0.144 ± 0.004 S/m. The electrical conductivity (278.1 K, Liquid, x1 = 0.4688) was 0.097 ± 0.003 S/m, the electrical conductivity (278.1 K, Liquid, x1 = 0.5001) was 0.089 ± 0.003 S/m and the viscosity (278.1 K, Liquid, x1 = 0.4108) was 394.6 ± 37 mPa·s. For the same compound, the mass density (278.1 K, Liquid, x1 = 0.1197) was 1079 ± 1 kg/m3, the mass density (278.1 K, Liquid, x1 = 0.1402) was 1080.9 ± 1 kg/m3 and the mass density (278.1 K, Liquid, x1 = 0.3555) was 1099.7 ± 1 kg/m3 and 1099.8 ± 1 kg/m3. The mass density (278.1 K, Liquid, x1 = 0.4108) was 1101.5 ± 1 kg/m3, the viscosity (278.6 K, Glass, x1 = 0.3555) was 1160 ± 160 mPa·s and the mass density (278.6 K, Liquid, x1 = 0.3555) was 1099.4 ± 1 kg/m3. The electrical conductivity (279.1 K, Glass, x1 = 0.3555) was 0.198 ± 0.005 S/m, the viscosity (279.1 K, Glass, x1 = 0.3555) was 633.2 ± 68 mPa·s and the electrical conductivity (279.1 K, Liquid, x1 = 0.0803) was 1.1 ± 0.023 S/m. It also gave an electrical conductivity (279.1 K, Liquid, x1 = 0.1197) of 0.866 ± 0.019 S/m, a mass density (279.1 K, Liquid, x1 = 0.3555) of 1098.8 ± 1 kg/m3 and an electrical conductivity (280.1 K, Glass, x1 = 0.1402) of 0.788 ± 0.017 S/m. For the same compound, the electrical conductivity (280.1 K, Liquid, x1 = 0.3555) was 0.206 S/m and 0.205 S/m, the electrical conductivity (280.1 K, Liquid, x1 = 0.4688) was 0.109 ± 0.003 S/m and the viscosity (280.1 K, Liquid, x1 = 0.3555) was 307.6 ± 27 mPa·s. It also gave a mass density (280.1 K, Liquid, x1 = 0.3555) of 1098.3 ± 1 kg/m3, a viscosity (280.6 K, Liquid, x1 = 0.3555) of 297.5 ± 25 mPa·s and a mass density (280.6 K, Liquid, x1 = 0.3555) of 1097.9 ± 1 kg/m3. The electrical conductivity (281.1 K, Glass, x1 = 0.1402) was 0.815 S/m and 0.816 S/m, the electrical conductivity (281.1 K, Glass, x1 = 0.1605) was 0.737 ± 0.015 S/m and the electrical conductivity (281.1 K, Liquid, x1 = 0.0803) was 1.22 ± 0.026 S/m. The electrical conductivity (281.1 K, Liquid, x1 = 0.1197) was 0.927 ± 0.02 S/m, the electrical conductivity (281.1 K, Liquid, x1 = 0.3555) was 0.215 S/m and 0.214 S/m and the electrical conductivity (281.1 K, Liquid, x1 = 0.4108) was 0.168 ± 0.004 S/m. For the same compound, the viscosity (281.1 K, Liquid, x1 = 0.3555) was 287.4 ± 24 mPa·s, the mass density (281.1 K, Liquid, x1 = 0.3555) was 1097.6 ± 1 kg/m3 and the electrical conductivity (282.1 K, Glass, x1 = 0.1402) was 0.848 S/m and 0.847 S/m. The electrical conductivity (282.1 K, Glass, x1 = 0.1605) was 0.766 ± 0.016 S/m, the viscosity (282.1 K, Glass, x1 = 0.3076) was 12190 ± 4500 mPa·s and the viscosity (282.1 K, Liquid, x1 = 0.3555) was 268.8 ± 22 mPa·s. It also gave a mass density (282.1 K, Liquid, x1 = 0.3076) of 1094.6 ± 1 kg/m3, a mass density (282.1 K, Liquid, x1 = 0.3555) of 1096.9 ± 1 kg/m3 and a viscosity (282.6 K, Glass, x1 = 0.3076) of 7608 ± 2300 mPa·s. For the same compound, the mass density (282.6 K, Liquid, x1 = 0.3076) was 1094.3 ± 1 kg/m3, the electrical conductivity (283.1 K, Glass, x1 = 0.1402) was 0.873 S/m and 0.874 S/m and the electrical conductivity (283.1 K, Glass, x1 = 0.1605) was 0.793 S/m and 0.791 S/m. The electrical conductivity (283.1 K, Glass, x1 = 0.2119) was 0.566 S/m and 0.563 S/m, the electrical conductivity (283.1 K, Glass, x1 = 0.2632) was 0.393 ± 0.009 S/m and the viscosity (283.1 K, Glass, x1 = 0.1402) was 11410 ± 4100 mPa·s. The viscosity (283.1 K, Glass, x1 = 0.3076) was 2873 ± 550 mPa·s, the electrical conductivity (283.1 K, Liquid, x1 = 0.0401) was 1.48 S/m and the electrical conductivity (283.1 K, Liquid, x1 = 0.0586) was 1.46 S/m and 1.45 S/m. The electrical conductivity (283.1 K, Liquid, x1 = 0.0803) was 1.29 ± 0.027 S/m, the electrical conductivity (283.1 K, Liquid, x1 = 0.1197) was 0.987 ± 0.021 S/m and the electrical conductivity (283.1 K, Liquid, x1 = 0.3555) was 0.234 S/m and 0.236 S/m. For the same compound, the electrical conductivity (283.1 K, Liquid, x1 = 0.4108) was 0.189 ± 0.004 S/m, the electrical conductivity (283.1 K, Liquid, x1 = 0.4688) was 0.128 S/m and 0.124 S/m and the electrical conductivity (283.1 K, Liquid, x1 = 0.5001) was 0.117 ± 0.003 S/m. The viscosity (283.1 K, Liquid, x1 = 0.1197) was 105.5 ± 7.3 mPa·s, the viscosity (283.1 K, Liquid, x1 = 0.3555) was 251.8 ± 20 mPa·s and 251.7 ± 20 mPa·s and the viscosity (283.1 K, Liquid, x1 = 0.4108) was 282.2 ± 24 mPa·s. It also gave a mass density (283.1 K, Liquid, x1 = 0.1197) of 1075.7 ± 1 kg/m3, a mass density (283.1 K, Liquid, x1 = 0.1402) of 1078.9 ± 1 kg/m3 and a mass density (283.1 K, Liquid, x1 = 0.3076) of 1094.1 ± 1 kg/m3. For the same compound, the mass density (283.1 K, Liquid, x1 = 0.3555) was 1096.1 ± 1 kg/m3 and 1096.2 ± 1 kg/m3, the mass density (283.1 K, Liquid, x1 = 0.4108) was 1098 ± 1 kg/m3 and the viscosity (283.6 K, Glass, x1 = 0.3076) was 1129 ± 150 mPa·s. It also gave a mass density (283.6 K, Liquid, x1 = 0.3076) of 1093.8 ± 1 kg/m3, an electrical conductivity (284.1 K, Glass, x1 = 0.1605) of 0.819 ± 0.017 S/m and an electrical conductivity (284.1 K, Glass, x1 = 0.2632) of 0.409 ± 0.009 S/m. The electrical conductivity (284.1 K, Glass, x1 = 0.3076) was 0.335 ± 0.007 S/m, the viscosity (284.1 K, Glass, x1 = 0.3076) was 560.6 ± 57 mPa·s and the electrical conductivity (284.1 K, Liquid, x1 = 0.1402) was 0.908 S/m and 0.907 S/m. For the same compound, the mass density (284.1 K, Liquid, x1 = 0.3076) was 1093.6 ± 1 kg/m3, the electrical conductivity (285.1 K, Glass, x1 = 0.1605) was 0.847 S/m and 0.848 S/m and the electrical conductivity (285.1 K, Glass, x1 = 0.2632) was 0.431 ± 0.01 S/m. The electrical conductivity (285.1 K, Glass, x1 = 0.3076) was 0.349 ± 0.008 S/m, the viscosity (285.1 K, Glass, x1 = 0.1402) was 6220 ± 1600 mPa·s and the electrical conductivity (285.1 K, Liquid, x1 = 0.0803) was 1.37 ± 0.029 S/m. For the same compound, the electrical conductivity (285.1 K, Liquid, x1 = 0.1197) was 1.06 ± 0.023 S/m, the electrical conductivity (285.1 K, Liquid, x1 = 0.1402) was 0.934 S/m and 0.936 S/m and the electrical conductivity (285.1 K, Liquid, x1 = 0.3555) was 0.258 S/m and 0.257 S/m. For the same compound, the electrical conductivity (285.1 K, Liquid, x1 = 0.4108) was 0.209 ± 0.005 S/m, the electrical conductivity (285.1 K, Liquid, x1 = 0.4688) was 0.142 ± 0.004 S/m and the viscosity (285.1 K, Liquid, x1 = 0.3076) was 191.9 ± 15 mPa·s. It also gave a mass density (285.1 K, Liquid, x1 = 0.1402) of 1077.9 ± 1 kg/m3, a mass density (285.1 K, Liquid, x1 = 0.3076) of 1092.7 ± 1 kg/m3 and a viscosity (285.6 K, Liquid, x1 = 0.3076) of 186 ± 14 mPa·s. For the same compound, the mass density (285.6 K, Liquid, x1 = 0.3076) was 1092.4 ± 1 kg/m3, the electrical conductivity (286.1 K, Glass, x1 = 0.1605) was 0.875 S/m and 0.876 S/m and the electrical conductivity (286.1 K, Glass, x1 = 0.2632) was 0.449 S/m and 0.445 S/m. For the same compound, the electrical conductivity (286.1 K, Glass, x1 = 0.3076) was 0.363 S/m and 0.362 S/m, the viscosity (286.1 K, Glass, x1 = 0.1402) was 4375 ± 980 mPa·s and the electrical conductivity (286.1 K, Liquid, x1 = 0.1402) was 0.965 S/m and 0.967 S/m. For the same compound, the viscosity (286.1 K, Liquid, x1 = 0.3076) was 180.2 ± 14 mPa·s, the mass density (286.1 K, Liquid, x1 = 0.1402) was 1077.3 ± 1 kg/m3 and the mass density (286.1 K, Liquid, x1 = 0.3076) was 1092 ± 1 kg/m3. The electrical conductivity (286.6 K, Glass, x1 = 0.2632) was 0.455 ± 0.01 S/m, the viscosity (286.6 K, Liquid, x1 = 0.3076) was 174.6 ± 13 mPa·s and the mass density (286.6 K, Liquid, x1 = 0.2632) was 1088.8 ± 1 kg/m3. The mass density (286.6 K, Liquid, x1 = 0.3076) was 1091.7 ± 1 kg/m3, the electrical conductivity (287.1 K, Glass, x1 = 0.1605) was 0.904 ± 0.019 S/m and the electrical conductivity (287.1 K, Glass, x1 = 0.1766) was 0.817 ± 0.017 S/m. It also gave an electrical conductivity (287.1 K, Glass, x1 = 0.2632) of 0.463 ± 0.01 S/m, a viscosity (287.1 K, Glass, x1 = 0.1402) of 2587 ± 460 mPa·s and a viscosity (287.1 K, Glass, x1 = 0.2632) of 14710 ± 5800 mPa·s. The electrical conductivity (287.1 K, Liquid, x1 = 0.1197) was 1.13 ± 0.024 S/m, the electrical conductivity (287.1 K, Liquid, x1 = 0.1402) was 0.996 S/m and 0.997 S/m and the electrical conductivity (287.1 K, Liquid, x1 = 0.1605) was 0.906 ± 0.019 S/m.

From the NIST ThermoML archive (doi:10.1016/j.jct.2014.04.016)
